This note sets out measurements from US8703961B2, “Thiazole derivatives for the treatment of diseases such as cancer” (Merck Patent GmbH, priority 2009, dated 2014).

Test in all cases: filter binding kinase assay
Common to all, as to format: biochemical

One test addresses T1, MARK2 (Homo sapiens, UniProt Q7KZI7).
T1 construct: purchased
Particulars: for pIC50: derived from % inhibition at 1 μM. In a few lines: (§1)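 Each reaction ran at ambient temperature following a five-minute compound preincubation, was started with ATP (5, 20 or 50 […] stock, per enzyme) and stopped with acid; substrate phosphorylation was read by scintillation counting of P81 filters.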

In another test the target is T2, CHEK1 (CHK1) (Homo sapiens, UniProt O14757).
T2 construct: purchased
T2 sequence (O14757 1-476): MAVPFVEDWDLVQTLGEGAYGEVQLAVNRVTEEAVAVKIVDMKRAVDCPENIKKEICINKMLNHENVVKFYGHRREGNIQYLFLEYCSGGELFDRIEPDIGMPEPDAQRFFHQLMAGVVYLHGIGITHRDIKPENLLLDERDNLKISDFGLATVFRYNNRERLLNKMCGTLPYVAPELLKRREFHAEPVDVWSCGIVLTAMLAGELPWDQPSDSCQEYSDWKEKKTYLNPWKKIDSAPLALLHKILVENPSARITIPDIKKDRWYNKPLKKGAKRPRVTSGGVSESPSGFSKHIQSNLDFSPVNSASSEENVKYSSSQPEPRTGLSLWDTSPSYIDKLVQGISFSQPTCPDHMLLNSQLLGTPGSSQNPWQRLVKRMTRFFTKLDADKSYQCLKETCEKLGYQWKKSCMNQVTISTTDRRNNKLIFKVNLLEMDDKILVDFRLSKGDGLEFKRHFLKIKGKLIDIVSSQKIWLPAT
Particulars: for pIC50: derived from % inhibition at 1 μM. Summed up:
as §1

The target in a further test is T3, EPHB3 (Homo sapiens, UniProt P54753).
T3 construct: purchased
T3 sequence (P54753 34-998): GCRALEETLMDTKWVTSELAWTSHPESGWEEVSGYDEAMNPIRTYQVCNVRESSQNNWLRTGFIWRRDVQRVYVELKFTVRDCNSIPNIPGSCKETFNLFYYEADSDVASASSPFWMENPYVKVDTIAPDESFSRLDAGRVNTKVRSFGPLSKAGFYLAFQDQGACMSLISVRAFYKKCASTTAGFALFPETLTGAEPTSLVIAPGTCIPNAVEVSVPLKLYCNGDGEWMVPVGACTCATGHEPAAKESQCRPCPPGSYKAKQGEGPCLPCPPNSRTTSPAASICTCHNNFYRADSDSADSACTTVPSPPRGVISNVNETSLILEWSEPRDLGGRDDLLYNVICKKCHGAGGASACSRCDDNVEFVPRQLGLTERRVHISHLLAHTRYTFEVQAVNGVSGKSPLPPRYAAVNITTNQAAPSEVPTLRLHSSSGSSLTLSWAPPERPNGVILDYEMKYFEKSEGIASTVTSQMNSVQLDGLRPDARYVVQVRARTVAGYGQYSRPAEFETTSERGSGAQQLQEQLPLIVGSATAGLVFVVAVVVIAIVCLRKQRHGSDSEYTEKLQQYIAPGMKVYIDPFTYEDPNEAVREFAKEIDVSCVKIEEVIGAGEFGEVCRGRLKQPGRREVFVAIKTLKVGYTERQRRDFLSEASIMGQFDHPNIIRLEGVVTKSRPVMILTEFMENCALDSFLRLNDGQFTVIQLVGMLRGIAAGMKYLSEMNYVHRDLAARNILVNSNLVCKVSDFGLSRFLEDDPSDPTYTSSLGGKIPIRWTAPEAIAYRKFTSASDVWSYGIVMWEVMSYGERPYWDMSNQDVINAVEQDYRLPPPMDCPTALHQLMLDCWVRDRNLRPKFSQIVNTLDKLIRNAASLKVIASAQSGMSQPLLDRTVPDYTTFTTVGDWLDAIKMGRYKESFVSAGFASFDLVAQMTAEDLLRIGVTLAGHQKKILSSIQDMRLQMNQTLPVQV
Particulars: derived from % inhibition at 1 μM. Summed up: as §1

Another test addresses T4, INSRR (Homo sapiens, UniProt P14616).
T4 construct: purchased
Particulars: derived from % inhibition at 1 μM. Summed up:
as §1

Another test addresses T5, SRPK1 (Homo sapiens, UniProt Q96SB4).
T5 construct: purchased
As to conditions: derived from % inhibition at 1 μM. In a few lines:
as §1

For a further test, the target named is T6, NEK6 (Homo sapiens, UniProt Q9HC98).
T6 construct: purchased
As to conditions: derived from % inhibition at 1 μM. Summed up: as §1

The target of another test is T7, IRAK4 (Homo sapiens, UniProt Q9NWZ3).
T7 construct: purchased
T7 sequence (Q9NWZ3 1-460): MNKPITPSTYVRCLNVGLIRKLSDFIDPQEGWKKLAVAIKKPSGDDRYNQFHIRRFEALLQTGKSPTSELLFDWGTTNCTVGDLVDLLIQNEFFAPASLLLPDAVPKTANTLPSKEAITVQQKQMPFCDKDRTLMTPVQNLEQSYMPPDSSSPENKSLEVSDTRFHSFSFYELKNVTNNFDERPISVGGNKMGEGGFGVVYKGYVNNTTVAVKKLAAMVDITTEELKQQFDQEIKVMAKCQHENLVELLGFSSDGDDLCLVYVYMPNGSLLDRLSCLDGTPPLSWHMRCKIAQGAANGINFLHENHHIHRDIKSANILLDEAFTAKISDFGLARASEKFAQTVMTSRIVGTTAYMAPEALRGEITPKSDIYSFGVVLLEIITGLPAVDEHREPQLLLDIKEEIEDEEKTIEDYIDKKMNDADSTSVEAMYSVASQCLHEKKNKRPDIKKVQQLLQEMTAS
As to conditions: derived from % inhibition at 1 μM. In a few lines: as §1

The structures appear in SMILES notation. pIC50: −log10 of the molar value.

T1 sequence (Q7KZI7 whole entry, species assumed): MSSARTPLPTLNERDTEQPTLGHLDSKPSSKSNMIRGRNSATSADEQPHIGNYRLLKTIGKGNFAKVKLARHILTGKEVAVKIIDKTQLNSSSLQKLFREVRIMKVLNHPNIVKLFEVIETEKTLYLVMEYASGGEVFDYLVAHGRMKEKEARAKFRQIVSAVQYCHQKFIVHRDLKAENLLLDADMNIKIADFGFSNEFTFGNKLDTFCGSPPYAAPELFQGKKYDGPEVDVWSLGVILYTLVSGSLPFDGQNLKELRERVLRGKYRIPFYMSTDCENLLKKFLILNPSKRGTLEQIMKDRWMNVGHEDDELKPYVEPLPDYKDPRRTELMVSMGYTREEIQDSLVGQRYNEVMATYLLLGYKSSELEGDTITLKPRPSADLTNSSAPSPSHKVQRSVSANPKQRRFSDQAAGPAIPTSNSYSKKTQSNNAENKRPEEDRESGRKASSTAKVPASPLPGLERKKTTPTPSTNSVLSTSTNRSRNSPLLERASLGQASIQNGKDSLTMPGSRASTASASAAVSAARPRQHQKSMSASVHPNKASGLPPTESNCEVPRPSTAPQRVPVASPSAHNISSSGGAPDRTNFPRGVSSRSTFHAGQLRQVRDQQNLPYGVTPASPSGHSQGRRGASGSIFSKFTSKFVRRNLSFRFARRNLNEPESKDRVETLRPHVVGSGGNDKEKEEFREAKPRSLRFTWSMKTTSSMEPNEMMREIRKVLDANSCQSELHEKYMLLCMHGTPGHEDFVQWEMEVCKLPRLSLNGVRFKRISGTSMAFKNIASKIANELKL
T4 sequence (P14616 27-1297, species assumed): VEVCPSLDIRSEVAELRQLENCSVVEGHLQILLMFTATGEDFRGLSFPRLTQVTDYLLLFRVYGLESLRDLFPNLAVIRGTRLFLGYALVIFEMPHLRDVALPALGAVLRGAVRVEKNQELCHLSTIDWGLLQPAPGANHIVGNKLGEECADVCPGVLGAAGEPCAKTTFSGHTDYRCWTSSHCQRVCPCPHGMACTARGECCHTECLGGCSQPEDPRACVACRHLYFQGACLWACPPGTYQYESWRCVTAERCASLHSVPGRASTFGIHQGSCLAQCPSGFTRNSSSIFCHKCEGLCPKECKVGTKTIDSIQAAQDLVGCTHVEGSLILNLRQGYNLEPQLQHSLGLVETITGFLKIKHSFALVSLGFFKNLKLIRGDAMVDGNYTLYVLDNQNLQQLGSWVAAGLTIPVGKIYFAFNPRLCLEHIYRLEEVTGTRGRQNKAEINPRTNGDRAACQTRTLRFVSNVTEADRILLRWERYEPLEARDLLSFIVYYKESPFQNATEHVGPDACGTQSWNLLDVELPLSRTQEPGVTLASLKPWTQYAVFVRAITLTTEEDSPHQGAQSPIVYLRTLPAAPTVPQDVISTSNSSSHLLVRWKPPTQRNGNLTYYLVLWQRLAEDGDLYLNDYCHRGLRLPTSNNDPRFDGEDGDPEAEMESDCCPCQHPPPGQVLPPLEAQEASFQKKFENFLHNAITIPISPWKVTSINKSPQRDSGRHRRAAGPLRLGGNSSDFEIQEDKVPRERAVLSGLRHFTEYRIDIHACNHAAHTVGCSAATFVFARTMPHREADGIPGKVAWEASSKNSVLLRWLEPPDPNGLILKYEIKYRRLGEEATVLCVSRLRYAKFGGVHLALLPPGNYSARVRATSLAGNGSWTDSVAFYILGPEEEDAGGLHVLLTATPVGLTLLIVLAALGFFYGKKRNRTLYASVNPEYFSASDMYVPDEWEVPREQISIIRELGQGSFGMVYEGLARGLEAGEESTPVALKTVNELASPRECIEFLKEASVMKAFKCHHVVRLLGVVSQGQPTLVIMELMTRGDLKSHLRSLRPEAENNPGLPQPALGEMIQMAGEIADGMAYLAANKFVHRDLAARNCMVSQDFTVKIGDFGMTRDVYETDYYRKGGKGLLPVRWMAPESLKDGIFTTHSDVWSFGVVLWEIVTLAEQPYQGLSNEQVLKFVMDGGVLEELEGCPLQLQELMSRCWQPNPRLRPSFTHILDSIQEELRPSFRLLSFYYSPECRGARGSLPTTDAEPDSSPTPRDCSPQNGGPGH
T5 sequence (Q96SB4 whole entry, species assumed): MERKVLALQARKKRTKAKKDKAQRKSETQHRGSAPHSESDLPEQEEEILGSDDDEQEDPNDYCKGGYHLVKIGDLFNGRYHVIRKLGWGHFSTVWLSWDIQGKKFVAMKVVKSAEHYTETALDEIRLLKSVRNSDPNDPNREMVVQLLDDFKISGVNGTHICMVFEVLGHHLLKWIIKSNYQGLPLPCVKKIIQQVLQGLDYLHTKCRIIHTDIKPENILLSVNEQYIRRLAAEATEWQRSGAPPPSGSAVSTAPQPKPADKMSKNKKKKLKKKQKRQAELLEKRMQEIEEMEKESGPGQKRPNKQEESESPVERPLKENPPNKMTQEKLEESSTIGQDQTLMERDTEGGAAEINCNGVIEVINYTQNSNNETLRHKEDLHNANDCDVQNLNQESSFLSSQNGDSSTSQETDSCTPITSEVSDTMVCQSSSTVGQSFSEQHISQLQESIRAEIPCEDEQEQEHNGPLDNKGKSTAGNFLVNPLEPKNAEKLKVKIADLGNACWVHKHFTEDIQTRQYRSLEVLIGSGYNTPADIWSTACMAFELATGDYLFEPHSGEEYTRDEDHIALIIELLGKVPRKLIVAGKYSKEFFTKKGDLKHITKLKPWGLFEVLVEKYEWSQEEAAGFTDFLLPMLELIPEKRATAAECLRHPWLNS
T6 sequence (Q9HC98 whole entry, species assumed): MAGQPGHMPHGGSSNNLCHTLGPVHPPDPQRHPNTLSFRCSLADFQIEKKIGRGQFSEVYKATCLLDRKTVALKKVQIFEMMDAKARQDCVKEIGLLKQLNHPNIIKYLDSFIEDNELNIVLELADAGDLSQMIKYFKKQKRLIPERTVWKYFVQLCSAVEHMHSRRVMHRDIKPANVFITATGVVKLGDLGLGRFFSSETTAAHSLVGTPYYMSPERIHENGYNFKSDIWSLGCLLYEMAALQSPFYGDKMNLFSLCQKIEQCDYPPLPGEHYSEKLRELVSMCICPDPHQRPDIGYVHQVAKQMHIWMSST

`Nc1ncsc1C#Cc1cccc(O)c1` [Compound A27, 3-(4-aminothiazol-5-ylethynyl)phenol]: the pIC50 at MARK2 was 4.00 to 5.00; at CHEK1 (CHK1), 4.00 to 5.00; on EPHB3, 5.00 to 6.00; at INSRR, less than 6.00; at SRPK1, 5.00 to 6.00; at NEK6, 4.00 to 5.00. Besides, the pIC50 at IRAK4 is 4.00 to 5.00.
Take `CC(C)(C)OC(=O)Nc1ncsc1C#CCN1C(=O)c2ccccc2C1=O` [Compound A26, tert-butyl{5-[3-(1,3-dioxo-1,3-dihydroisoindol-2-yl)prop-1-ynyl]-thiazol-4-yl}carbamate]: the pIC50 on MARK2 is 5.00 to 6.00; on CHEK1 (CHK1) it was 4.00 to 5.00; on EPHB3 it was 5.00 to 6.00; on INSRR it was 5.00 to 6.00; on SRPK1 it was less than 6.00; at NEK6 it was 4.00 to 5.00. On IRAK4, this compound showed a pIC50 of 4.00 to 5.00.
`CC(C)(C)OC(=O)Nc1nc(-c2ccncc2)sc1C#CCN1CCOCC1` [Compound A25, tert-butyl[5-(3-morpholin-4-ylprop-1-ynyl)-2-pyridin-4-ylthiazol-4-yl]-carbamate]: the pIC50 is less than 6.00 at MARK2; 4.00 to 5.00 at CHEK1 (CHK1); less than 6.00 at EPHB3; less than 6.00 at INSRR; less than 6.00 at SRPK1; 5.00 to 6.00 at NEK6. This compound also showed a pIC50 at IRAK4 of 4.00 to 5.00.
As for `c1ccc(Cc2c[nH]c3ncsc23)cc1` [Compound A7, 6-benzyl-4H-pyrrolo[2,3-d]thiazole], the pIC50 on MARK2 is 4.00 to 5.00; on CHEK1 (CHK1), less than 6.00; at EPHB3 it was less than 6.00; on INSRR, less than 6.00; at SRPK1, 4.00 to 5.00; at NEK6, 4.00 to 5.00. This compound had a pIC50 at IRAK4 of less than 6.00.
Regarding `Nc1ncsc1C#Cc1cnc2[nH]ccc2c1` [Compound A22, 5-(1H-pyrrolo[2,3-b]pyridin-5-ylethynyl)thiazol-4-ylamine], the pIC50 was 6.00 to 8.00 at MARK2; 6.00 to 8.00 on CHEK1 (CHK1); 4.00 to 5.00 on EPHB3; 5.00 to 6.00 at INSRR; less than 6.00 on SRPK1; less than 6.00 at NEK6. The same compound showed a pIC50 on IRAK4 of less than 6.00. The results for the remaining activity at 1 µM at MARK2 (read-out: residual kinase activity MARK2) and on CHEK1 (CHK1) (read-out: residual kinase activity CHK1) were 31% and 40%, respectively.
